We go through one compound from patent publication US8334316B2, “Substituted organosulfur compounds and methods of using thereof” (ACEA Biosciences, Inc., priority 2004, dated 2012).

The subject of series [1] is mouse Lewis lung cancer. Nature of the series: In vivo antitumor efficacy, mouse Lewis lung cancer model (subcutaneously transplanted), Example 1. The method, then: Test controls. For the negative control, two groups were set up: the solvent only control group and normal saline control group. […] In the normal saline group, each mouse was administered with 0.5 ml of normal saline, once per day and for 7 or 10 consecutive days. For the positive control group, the anticancer compound, cyclophosphamide (CTX) was administered intraperitoneally at 30 mg/kg, once per day and for 7 or 10 consecutive days.
In the mouse Lewis lung cancer model, 200 mg of DBTS was dissolved in 5 mL castor oil (in polyoxyethlated version). […] The intravenous injection speed was about 0.5 mL/0.5 min.
The dosages and administration of test compounds are within the knowledge of those commonly skilled in pharmacology. For example, the test compounds may be administered by intravenous injection with a test compound solution twice per day and for 7 consecutive days. Alternatively, the test compounds may be administered by intravenous injection with a test compound solution once per day and for 10 consecutive days.
0.2 mL of the tumor cell suspension (between 4 and 8 million tumor cells) was then transplanted back into an experimental mouse by subcutaneous injection. […] Each removed solid tumor was weighted, and the tumor inhibition rate in the DBTS-treated groups and in the CTX-treated group was calculated according to the formula: Tumor inhibition rate %=(average weight of tumor in the negative control group−average weight of tumor in the compound treated group)/average weight of tumor in the negative control group×100 (2)
For the mouse Lewis lung cancer model, the Lewis lung cancer cells were subcutaneously transplanted at approximately 5 million cells per mouse. After 24 hours of the transplantation, each mouse in the test group was administered intravenously with dibenzyl trisulfide at 50, 25, or 12.5 mg/kg per day and for 10 consecutive days. For the positive control group, each mouse was administered with CTX at […] intraperitoneally per day and for 10 consecutive days. For the negative control group, each mouse was administered intravenously either with normal saline, or with the solvent for dibenzyl trisulfide at the same concentration as that in the test group per day and for consecutive 10 days. For each group, 10 mice were used.

Series [2] has as its system mouse sarcoma S180. Nature of the series: In vivo antitumor efficacy, mouse sarcoma S180 model (subcutaneously transplanted), Example 1.

Values joined by “and” are separate entries in the source; they are usually repeats but may differ in a detail not shown here. Equal values may be shown once.

Regarding `c1ccc(CSSSCc2ccccc2)cc1` [DBTS, Dibenzyl trisulfide], the “Inhibition rate (%)” value in series [1] (12.5 mg/kg/d iv x10 qd, vs 5% solvent control) was 37.38% and 37.28%; in series [1] (12.5 mg/kg/d iv x10 qd, vs normal saline control), 45.21%; in series [1] (25 mg/kg/d iv x10 qd, vs 5% solvent control), 44.30%; in series [1] (25 mg/kg/d iv x10 qd, vs normal saline control) it was 51.34%; in series [1] (50 mg/kg/d iv x10 qd, vs 5% solvent control), 62.28%; in series [1] (50 mg/kg/d iv x10 qd, vs normal saline control), 67.05% and 65%. Moreover, the “Inhibition rate (%)” value in series [2] (12.5 mg/kg/d iv x7 qd, vs 10% solvent control) is 30.46%; in series [2] (12.5 mg/kg/d iv x7 qd, vs normal saline control), 48.69%; in series [2] (25 mg/kg/d iv x7 qd, vs 10% solvent control), 38.58%; in series [2] (25 mg/kg/d iv x7 qd, vs normal saline control), 54.68%; in series [2] (50 mg/kg/d iv x7 qd, vs 10% solvent control) it was 50.25%; in series [2] (50 mg/kg/d iv x7 qd, vs normal saline control), 63.30% and 65%. Moreover, in series [2] (12.5 mg/kg/d iv x7 qd), the “Animal weight (g) end” value amounted to 24.5 g.
